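How tested: cells in 96-well plates exposed to compound for 48 hours at five concentrations. GI50 marks 50% less growth. At the TGI there is no net growth.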
Assays:
Test in all cases: NCI tumour cell line growth inhibition, 48 h
U251 CNS = test system: U251 CNS
NCI-H460 lung = test system: NCI-H460 lung
HOP-62 NSCLC = test system: HOP-62 NSCLC
NCI-H23 lung = test system: NCI-H23 lung
NCI/ADR-RES ovarian = test system: NCI/ADR-RES ovarian
ACHN renal = test system: ACHN renal
SF-268 CNS = test system: SF-268 CNS
LOX IMVI melanoma = test system: LOX IMVI melanoma
T-47D breast = test system: T-47D breast
UO-31 renal = test system: UO-31 renal
A549 NSCLC = test system: A549 NSCLC
IGROV1 ovarian = test system: IGROV1 ovarian
HCT-15 colon = test system: HCT-15 colon
OVCAR-8 ovarian = test system: OVCAR-8 ovarian
TK-10 renal = test system: TK-10 renal
SF-295 CNS = test system: SF-295 CNS
K-562 leukemia = test system: K-562 leukemia
NCI-H522 lung = test system: NCI-H522 lung
COLO 205 colon = test system: COLO 205 colon
HCC-2998 colon = test system: HCC-2998 colon
RPMI-8226 leukemia = test system: RPMI-8226 leukemia
786-0 renal = test system: 786-0 renal
HL-60(TB) leukemia = test system: HL-60(TB) leukemia
KM12 colon = test system: KM12 colon
M14 melanoma = test system: M14 melanoma
HS 578T breast = test system: HS 578T breast
RXF 393 renal = test system: RXF 393 renal
UACC-62 melanoma = test system: UACC-62 melanoma
OVCAR-5 ovarian = test system: OVCAR-5 ovarian
SR leukemia = test system: SR leukemia
SN12C renal = test system: SN12C renal
HCT-116 colon = test system: HCT-116 colon
SF-539 CNS = test system: SF-539 CNS
SK-MEL-5 melanoma = test system: SK-MEL-5 melanoma
HOP-92 NSCLC = test system: HOP-92 NSCLC
CAKI-1 renal = test system: CAKI-1 renal
HT29 colon = test system: HT29 colon
MCF7 breast = test system: MCF7 breast
SK-MEL-2 melanoma = test system: SK-MEL-2 melanoma
CCRF-CEM leukemia = test system: CCRF-CEM leukemia
MDA-MB-231 breast = test system: MDA-MB-231 breast
SK-OV-3 ovarian = test system: SK-OV-3 ovarian
SW-620 colon = test system: SW-620 colon
MDA-MB-435 = test system: MDA-MB-435
UACC-257 melanoma = test system: UACC-257 melanoma
DU-145 prostate = test system: DU-145 prostate
BT-549 breast = test system: BT-549 breast
PC-3 prostate = test system: PC-3 prostate
MOLT-4 leukemia = test system: MOLT-4 leukemia
OVCAR-4 ovarian = test system: OVCAR-4 ovarian
SNB-75 CNS = test system: SNB-75 CNS
SNB-19 CNS = test system: SNB-19 CNS
SK-MEL-28 melanoma = test system: SK-MEL-28 melanoma
NCI-H226 lung = test system: NCI-H226 lung
A498 renal = test system: A498 renal
EKVX NSCLC = test system: EKVX NSCLC
MALME-3M melanoma = test system: MALME-3M melanoma
OVCAR-3 ovarian = test system: OVCAR-3 ovarian

In the case of `COc1ccc(-c2cnc(-c3ccc(F)cc3)[nH]2)cc1`, the GI50 (U251 CNS) is reported as 6.3 µM, the TGI (U251 CNS) is reported as 17.2 µM and the GI50 (NCI-H460 lung) is reported as 8.37 µM. For the same compound, the TGI (NCI-H460 lung) was 29.6 µM, the GI50 (HOP-62 NSCLC) was 8.25 µM and the TGI (HOP-62 NSCLC) was 21.4 µM. It also gave a GI50 (NCI-H23 lung) of 10.6 µM, a TGI (NCI-H23 lung) of 46.6 µM and a GI50 (NCI/ADR-RES ovarian) of 28.6 µM. It also gave a TGI (NCI/ADR-RES ovarian) of over 100 µM, a GI50 (ACHN renal) of 15.2 µM and a TGI (ACHN renal) of 30.5 µM. For the same compound, the GI50 (SF-268 CNS) was 2.62 µM, the TGI (SF-268 CNS) was 8 µM and the GI50 (LOX IMVI melanoma) was 5.49 µM. The TGI (LOX IMVI melanoma) was 10.8 µM, the GI50 (T-47D breast) was 8.39 µM and the TGI (T-47D breast) was 36.4 µM. It also gave a GI50 (UO-31 renal) of 6.59 µM, a TGI (UO-31 renal) of 20.4 µM and a GI50 (A549 NSCLC) of 5.8 µM. The TGI (A549 NSCLC) was 16.1 µM, the GI50 (IGROV1 ovarian) was 6.58 µM and the TGI (IGROV1 ovarian) was 12.7 µM. It also gave a GI50 (HCT-15 colon) of 5.98 µM, a TGI (HCT-15 colon) of 13.9 µM and a GI50 (OVCAR-8 ovarian) of 7.85 µM. It also gave a TGI (OVCAR-8 ovarian) of 21.1 µM, a GI50 (TK-10 renal) of 2.58 µM and a TGI (TK-10 renal) of 8.81 µM. It also gave a GI50 (SF-295 CNS) of 1.54 µM, a TGI (SF-295 CNS) of 3.43 µM and a GI50 (K-562 leukemia) of 10.3 µM. The TGI (K-562 leukemia) was over 55.1 µM, the GI50 (NCI-H522 lung) was 20.5 µM and the TGI (NCI-H522 lung) was over 56.1 µM. It also gave a GI50 (COLO 205 colon) of 2.2 µM, a TGI (COLO 205 colon) of 7.59 µM and a GI50 (HCC-2998 colon) of 7.4 µM. The TGI (HCC-2998 colon) was 25.1 µM, the GI50 (RPMI-8226 leukemia) was 2.39 µM and the TGI (RPMI-8226 leukemia) was over 27.2 µM. The GI50 (786-0 renal) was 6.14 µM, the TGI (786-0 renal) was 12.3 µM and the GI50 (HL-60(TB) leukemia) was 2.03 µM. The TGI (HL-60(TB) leukemia) was 23.4 µM, the GI50 (KM12 colon) was 1.7 µM and the TGI (KM12 colon) was 3.27 µM. For the same compound, the GI50 (M14 melanoma) was 5.99 µM, the TGI (M14 melanoma) was 14.5 µM and the GI50 (HS 578T breast) was 2.14 µM. For the same compound, the TGI (HS 578T breast) was 11.2 µM, the GI50 (RXF 393 renal) was 2.2 µM and the TGI (RXF 393 renal) was 5.59 µM. The GI50 (UACC-62 melanoma) was 19.4 µM, the TGI (UACC-62 melanoma) was over 50 µM and the GI50 (OVCAR-5 ovarian) was 12.6 µM. It also gave a TGI (OVCAR-5 ovarian) of 43.9 µM, a GI50 (SR leukemia) of 2.41 µM and a TGI (SR leukemia) of 6.27 µM. For the same compound, the GI50 (SN12C renal) was 8.34 µM, the TGI (SN12C renal) was 23.7 µM and the GI50 (HCT-116 colon) was 1.36 µM. It also gave a TGI (HCT-116 colon) of 3.39 µM, a GI50 (SF-539 CNS) of 9.46 µM and a TGI (SF-539 CNS) of 29.6 µM. The GI50 (SK-MEL-5 melanoma) was 7.81 µM, the TGI (SK-MEL-5 melanoma) was 20.7 µM and the TGI (HOP-92 NSCLC) was 13.1 µM. The GI50 (CAKI-1 renal) was 1.82 µM, the TGI (CAKI-1 renal) was 5.57 µM and the GI50 (HT29 colon) was 3.19 µM. The TGI (HT29 colon) was over 32.8 µM, the GI50 (MCF7 breast) was 1.95 µM and the TGI (MCF7 breast) was 6.93 µM. It also gave a GI50 (SK-MEL-2 melanoma) of 18.8 µM, a TGI (SK-MEL-2 melanoma) of 45 µM and a GI50 (CCRF-CEM leukemia) of 18.1 µM. For the same compound, the TGI (CCRF-CEM leukemia) was over 89.4 µM, the GI50 (MDA-MB-231 breast) was 24 µM and the TGI (MDA-MB-231 breast) was over 77.7 µM. It also gave a GI50 (SK-OV-3 ovarian) of 16.5 µM, a TGI (SK-OV-3 ovarian) of over 66.4 µM and a GI50 (SW-620 colon) of 1.91 µM. It also gave a TGI (SW-620 colon) of 3.99 µM, a GI50 (MDA-MB-435) of 1.96 µM and a TGI (MDA-MB-435) of 5.27 µM. The GI50 (UACC-257 melanoma) was 5.17 µM, the TGI (UACC-257 melanoma) was 17.2 µM and the GI50 (DU-145 prostate) was 2.59 µM. For the same compound, the TGI (DU-145 prostate) was 7.59 µM, the GI50 (BT-549 breast) was 1.79 µM and the TGI (BT-549 breast) was 4.12 µM. It also gave a GI50 (PC-3 prostate) of 10.8 µM, a TGI (PC-3 prostate) of 68.4 µM and a GI50 (MOLT-4 leukemia) of 10.5 µM. For the same compound, the TGI (MOLT-4 leukemia) was 49.6 µM, the GI50 (OVCAR-4 ovarian) was 10.1 µM and the TGI (OVCAR-4 ovarian) was over 35.3 µM. It also gave a GI50 (SNB-75 CNS) of 4.26 µM, a TGI (SNB-75 CNS) of 10.7 µM and a GI50 (SNB-19 CNS) of 10.8 µM. It also gave a TGI (SNB-19 CNS) of 26.1 µM, a GI50 (SK-MEL-28 melanoma) of 3.69 µM and a TGI (SK-MEL-28 melanoma) of 8.5 µM. The GI50 (NCI-H226 lung) was 11 µM, the TGI (NCI-H226 lung) was over 62.3 µM and the GI50 (A498 renal) was 2.2 µM. For the same compound, the TGI (A498 renal) was 6.17 µM, the GI50 (EKVX NSCLC) was 5.9 µM and the TGI (EKVX NSCLC) was 18.5 µM. It also gave a GI50 (MALME-3M melanoma) of 6.12 µM, a TGI (MALME-3M melanoma) of 22.4 µM and a GI50 (OVCAR-3 ovarian) of 1.64 µM. The TGI (OVCAR-3 ovarian) was 3.65 µM.
